From PMC11203978, “Discovery of Di(het)arylmethane and Dibenzoxanthene Derivatives as Potential Anticancer Agents” (International Journal of Molecular Sciences, 2024) come the findings set out here.

For orientation: IC50 means the concentration needed to halve the response being measured.

The subject of one experiment is MCF-7. Kind of experiment: MTT cytotoxicity, MCF-7. The conditions noted are these: Homo sapiens, MCF7, read-out: IC50 (µM) Cancer Cell Lines MCF-7. Format: cell-based. The source says: (§1) Cells and Materials. For the experiments, we used tumor cell cultures M-HeLa clone 11 (epithelioid carcinoma of the cervix, subline HeLa, clone M-HeLa), HuTu 80, human duodenal adenocarcinoma, Hep-2, human epithelial cells, SH-SY5Y, human neuroblast-like cells, A549, human lung adenocarcinoma, PA-1, human ovarian teratocarcinoma and MCF-7, a human mammary ductal adenocarcinoma from the collection of the Institute of Cytology, Russian Academy of Sciences (St. Petersburg, Russia); human liver cells (Chang liver) were from the collection and the Research Institute of Virology of the Russian Academy of Medical Sciences (Moscow, Russia).
(§2) MTT Assay. The cytotoxic effect on cells was determined using the colorimetric method of cell proliferation—the MTT test. NADP-H-dependent cellular oxidoreductase enzymes can, under certain conditions, reflect the number of viable cells. These enzymes reduce the tetrazolium dye (MTT) 3-(4,5-dimethylthiazol-2-yl)-2,5-diphenyl-tetrazolium bromide to insoluble blue-violet formazan, which crystallizes inside the cell. The amount of formed formazan is proportional to the number of cells with active metabolism. […] Optical density was recorded at 540 nm on an Invitrologic microplate reader (Novosibirsk, Russia). […]
(§3) Statistical analysis. The IC50 values were calculated using the MLA–Quest Graph™ IC50 Calculator (AAT Bioquest, Inc., Sunnyvale, CA, USA), 14 February 2022. […]

A further experiment has as its system Hep-2. Kind of experiment: MTT cytotoxicity, Hep-2. As to conditions: Homo sapiens, read-out: IC50 (µM) Cancer Cell Lines Hep-2. In kind it is cell-based.
Description: as §1, §2, §3

The next experiment relates to HuTu 80 cells. Kind of experiment: Intracellular ROS, CellROX Deep Red flow cytometry. Format: cell-based, human. As to conditions: IC50/2 and IC50. On the procedure: The apoptosis via the mitochondrial pathway also increases the production of reactive oxygen species (ROS). As mitochondria itself becomes the target of ROS, an increase in their production disrupts mitochondrial functions and culminates in irreversible cell damage. Therefore, the effect of lead compounds 6a and 5a at IC50/2 and IC50 concentrations on ROS production in HuTu 80 cells was evaluated using flow cytometry. […] Such an effect is not observed for intact cells in the presence of both compounds, indicating an increase in ROS production in cancer tissues.
Detection of Intracellular ROS. HuTU 80 cells were incubated with lead compounds at concentrations of IC50/2 and IC50 for 48 h. ROS generation was investigated using flow cytometry assay and CellROX® Deep Red flow cytometry kit. For this purpose, […] cells were harvested at 2000 rpm for 5 min and then washed twice with ice-cold PBS, followed by resuspension in 0.1 mL of medium without FBS, to which was added 0.2 μL of CellROX® Deep Red, which was followed by incubation at 37 °C for 30 min. The cells were washed three times and suspended in PBS. After that, the production of ROS in the cells was immediately monitored using flow cytometer (Guava easy Cyte, MERCK, Rahway, NJ, USA).

Another experiment concerns SH-SY5Y. Kind of experiment: MTT cytotoxicity, SH-SY5Y. As to conditions: Homo sapiens, read-out: IC50 (µM) Cancer Cell Lines SH-SY5Y. In kind it is cell-based.
Description: as §1, §2, §3

Consider `O=C(C[P+](c1ccccc1)(c1ccccc1)c1ccccc1)NCCC1c2c(ccc3ccccc23)Oc2ccc3ccccc3c21` [Compound 6a], for which the IC50 in the experiment on MCF-7 was found to be 7.12 ± 0.76 µM; in the experiment on Hep-2, 2.34 ± 0.01 µM; in the experiment with SH-SY5Y, 10.9 ± 0.23 µM. Also, the “ROS production, CellROX Deep Red fluorescence intensity (in words)” value in the experiment with HuTu 80 cells is recorded as “significant reliable increase”.
